Test results from patent US20180271470A1, “METHODS FOR QUANTIFYING PANCREATIC BETA CELL FUNCTION AND MASS PROPERTIES WITH RADIOMANGANESE POSITRON EMISSION TOMOGRAPHY” (Wisconsin Alumni Research Foundation, priority 2017, published 2018).
Values joined by “and” are separate entries in the source; they are usually repeats but may differ in a detail not shown here. Identical values can stand only once. One block for each molecule: values may come before it.

Tests used:
[1] = primate models; cited from earlier work
[2] = dogs, previous studies; cited from earlier work
[3] = biological target: type 2 vesicular transporter (VMAT2) (Homo sapiens, UniProt Q05940); details: cited from earlier work
[4] = Ex vivo ^52Mn^2+ biodistribution by gamma counting after last PET scan; format: in vivo; details: ICR mice, ex vivo gamma counting 13 days after injection
Experimental: Ex vivo biodistribution studies were performed in all groups of mice in order to validate the results of PET imaging and obtain a more complete biodistribution profile of ^52Mn^2+. Following the last imaging time point, mice were euthanized by C02 asphyxiation and the organs of interest were removed, wet-weighed, and counted on an automated gamma-counter (Wizard 2480, Perkin Elmer). The tissue uptake of ^52Mn^2+ was reported as SUV (mean±SD).

[5] = test system: isolated ob/ob mouse islets; test: Uptake of ^52Mn^2+ in isolated islets under stimulatory or inhibitory conditions; format: cell-based; details: low glucose (1 mM), 370 kBq ^52Mn^2+
Experimental: Mouse pancreatic islets were isolated by collagenase digestion. Briefly, mice were placed under shallow anesthesia and sacrificed via cervical dislocation. The mouse common bile duct was cannulized and 3-5 mL of an ice-cold solution containing type XI collagenase (0.5 mg/mL; Sigma Aldrich, St. Louis, Mo.) and bovine serum albumin (BSA; 0.2 mg/mL; Sigma Aldrich, St. Louis, Mo.) in Hank's balanced salt solution (HBSS; Invitrogen, Carlsbad, Calif.) was injected into the mouse pancreas. After inflation, the pancreas was removed, placed in a glass vial containing 5 mL of the collagenase solution, and incubated in a shaking water bath at 37° C. Samples were digested for approximately 30 min after which the digests were centrifuged at 50×g for 2 min and islet pellets were washed three times with 30 mL of an ice-cold BSA (0.2 mg/mL) in HBSS solution. The pellet was resuspended and islets handpicked into 35 mm petri dishes. Following isolation, islets were placed in RPMI1640 media supplemented with penicillin (100 U/mL; Invitrogen), streptomycin (100 μg/mL; Invitrogen), and FBS [10% (wt/vol); Sigma] and incubated overnight at 37° C. in a 5% CO2 atmosphere.
The uptake of ^52Mn^2+ by murine islets of Langerhans was determined under several stimulatory or inhibitory conditions. Batches of 50 islets were transferred into 0.45 μm filtered bottom 1 mL centrifuge vials (Thermo Fisher Scientific, Grand Island, N.Y.), 500 μL of Krebs-Ringer buffer (KRB: 118 mM NaCl, 5.4 mM KCl, 2.4 mM CaCl, 1.2 mM MgSO4, 1 mM […], 20 mM HEPES; pH 7.4) containing a low glucose concentration (1 mM D-glucose) were added and the islets incubated for 30 min at 37° C. After removing the supernatant following centrifugation at 50×g for 5 min, 250 μL of KRB containing glucose, diazoxide (50 μM; Tocris Biosciences, Bristol, UK), or tolbutamide (250 μM; Selleckchem, Houston, Tex.) were added, and the vials were spiked with 370 kBq (10 μCi) of ^52Mn^2+. After 15 min of incubation, the solutions were filtered and islets were washed three times with KRB. The ^52Mn^2+ radioactivity in the islet pellets were measured in an automated gamma counter (Perkin Elmer).

[6] = Static PET imaging of ^52Mn^2+ biodistribution in normal mice; format: in vivo, ICR mice; details: healthy mice, IV, peaked within minutes following administration
[7] = ^52Mn^2+ PET and biodistribution in STZ type-1 diabetes model; format: in vivo, ICR mice
Experimental: Type 1 diabetes was induced in female ICR mice via a single IP injection of 180 mg/kg streptozotocin (STZ; MP Biomedical, LLC, Santa Ana, Calif.), a toxin that selectively destroys pancreatic beta cell. The injectable STZ solution (12.5 mg/mL) was prepared freshly in phosphate buffered saline (PBS). The weight of each mouse was measured daily, and blood glucose levels were recorded every other day with a glucometer (TRUEresult, Trividia Health Inc., Fort Lauderdale, Fla.) using blood samples collected from the tail vein. Mice were considered diabetic after two consecutive blood glucose readings above 250 mg/dL and were used for PET imaging studies one week after the injection of STZ. To evaluate ^52Mn^2+ pancreatic uptake on diabetic mice, 0.74 MBq (20 μCi) of activity were administered IV and static PET images recorded one hour after administration of the tracer. Ex vivo biodistribution was carried out following PET acquisition.

[8] = Dynamic PET of ^52Mn^2+ (rapid IV bolus or 30 min IV infusion) under isoflurane; format: in vivo, mice
Experimental: To acquire dynamic PET scans, mice were anesthetized with isoflurane and the lateral tail vein was catheterized. Simultaneous with the administration of approximately 1.7 MBq (50 μCi) of ^52Mn^2+ as a fast IV bolus, one-hour scans were recorded and list-mode files were binned into 46 frames (12×5 s, 6×10 s, 6×30 s, 10×60 s, 6×150 s, 6×300 s) and the images reconstructed using a non-scatter-corrected OSEM3D/MAP algorithm. In another study, 1.7 MBq (50 μCi) of ^52Mn^2 was continuously infused with a syringe pump (Kd Scientific, Model 780100) over a period of 30 min, starting at the beginning of the PET scan. List-mode files were framed into 30×2 min frames and reconstructed using the above-mentioned algorithm.

[9] = Static PET imaging of ^52Mn^2+ biodistribution in normal mice; format: in vivo, ICR mice
Experimental: The acquisition of PET images was performed in the Inveon μPET/μCT scanner (Siemens Preclinical Solutions, Knoxville, Tenn.). To study the long-term biodistribution and clearance of ^52Mn^2+ in the mouse body, approximately 3.7 MBq (100 μCi) of ^52Mn^2+ was injected intravenously (IV) in female ICR mice. […] Before each scan, mice were anesthetized with isoflurane (4% induction; 1% maintenance) and placed in the scanner in prone position. 30×10^6-40×10^6 coincidence events per mouse static PET scans were acquired (time window, 3.432 ns; energy window, 350-650 keV) and the PET images were reconstructed in Inveon Acquisition Workplace (Siemens Preclinical Solutions, Knoxville, Tenn.) workstation using a non-scatter-corrected three-dimensional Ordered Subset Expectation […]/Maximum a Posteriori (OSEM3D/MAP) algorithm. Region-of-interest (ROI) analysis was performed after organs were manually delineated on the PET images. Tissue uptake values were reported as standardized uptake value (SUV), which is normalized to whole body radiomanganese concentration.

[10] = ^52Mn^2+ PET in pre-type 2 diabetic ob/ob and lean C57BL/6J mice; format: in vivo
Description: Given the altered glucose metabolism in obese mice, we compared the pancreatic uptake of ^52Mn^2+ in lean (wild-type) and obese (ob/ob) mice on the C57BL/6J background. For PET imaging, 0.74 MBq (20 μCi) of ^52Mn^2+ was IV injected into obese mice or lean controls one hour prior to PET scan acquisition. Subsequent ^52Mn^2+ accumulation in the pancreas and other organs of interest was quantified.

[11] = rapid IV bolus, isoflurane throughout, 1 h post injection
[12] = ICR mice, IV ^52Mn^2+, awake at injection, static PET 1 h post injection

type 2 vesicular transporter (VMAT2), sequence (Q05940 whole entry, species assumed): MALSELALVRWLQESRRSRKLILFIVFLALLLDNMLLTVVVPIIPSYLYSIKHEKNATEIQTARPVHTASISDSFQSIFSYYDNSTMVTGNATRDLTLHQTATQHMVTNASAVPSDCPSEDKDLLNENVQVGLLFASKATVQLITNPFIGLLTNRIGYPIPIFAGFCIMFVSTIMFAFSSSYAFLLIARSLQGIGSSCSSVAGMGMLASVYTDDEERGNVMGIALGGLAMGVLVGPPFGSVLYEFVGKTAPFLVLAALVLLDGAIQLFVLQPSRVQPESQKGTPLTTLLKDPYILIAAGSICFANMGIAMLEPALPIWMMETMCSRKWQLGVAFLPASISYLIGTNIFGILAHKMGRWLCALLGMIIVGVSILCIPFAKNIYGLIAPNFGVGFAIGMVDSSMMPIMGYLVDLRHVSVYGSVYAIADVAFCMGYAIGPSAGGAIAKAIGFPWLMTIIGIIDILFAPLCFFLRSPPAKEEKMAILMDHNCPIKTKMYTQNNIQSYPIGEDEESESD

Structure (SMILES): COc1cc2c(cc1O[11CH3])CCN1CC(CC(C)C)C(O)CC21 (stereo not drawn) [[^11C]-DTBZ, [^11C]-Dihydrotetrabenazine]
pancreatic uptake [1]: very low

Structure (SMILES): [54Mn] [Mn-54]
blood clearance [2]: ~0.8 min

Structure (SMILES): COc1cc2c(cc1OCCCF)CCN1CC(CC(C)C)C(O)CC21 (stereo not drawn) [FP-(+)-DTBZ]
affinity for VMAT2 [3]: high affinity

^52Mn^2+ uptake in other organs (brain, lungs, bones, intestines, stomach, spleen) [4]: less than 0.5 SUV
^52Mn^2+ uptake in the pancreas at peak [6]: 5-6 SUV
^52Mn^2+ uptake in pancreas of diabetic mice (PET ROI) ([7]; STZ (180 mg/kg) diabetic ICR mice, 1 h post injection, normal mice 5.13±0.38 SUV): 2.04±0.81 SUV
decrease in pancreatic accumulation of ^52Mn^2+, ex vivo biodistribution ([7]; STZ-diabetic vs normal ICR mice): > 58%
reduction in the pancreatic accumulation of ^52Mn^2+ ([7]; STZ-induced type-1 diabetes model vs normal): ~60%
^52Mn^2+ uptake in pancreas, continuous infusion ([8]; IV infusion over 30 min, isoflurane): 3.44±0.69 SUV
^52Mn^2+ uptake in kidney, continuous infusion ([8]; IV infusion over 30 min, isoflurane, 1 h post injection): 5.14±1.21 SUV
reduction in pancreatic uptake, dynamic vs static PET ([8]; rapid IV bolus under isoflurane vs awake injection, 1 h post injection): ~50%
time until uptake stabilized in organs of interest ([8]; rapid IV bolus, dynamic PET): within five minutes
blood circulation half-life ([8]; rapid IV bolus, from myocardial TAC of dynamic PET): 10.7 ± 3.5 s
^52Mn^2+ uptake in heart, dynamic PET [8, 11]: 2.60±0.41 SUV
^52Mn^2+ uptake in kidneys, dynamic PET [8, 11]: 7.81±0.51 SUV
^52Mn^2+ uptake in liver, dynamic PET [8, 11]: 5.16±1.46 SUV
^52Mn^2+ uptake in muscle, dynamic PET [8, 11]: 0.16±0.02 SUV
^52Mn^2+ uptake in pancreas, dynamic PET [8, 11]: 2.74±0.59 SUV
^52Mn^2+ uptake in heart (PET ROI) [9, 12]: 2.11±0.20 SUV
^52Mn^2+ uptake in kidneys (PET ROI) [9, 12]: 5.13±0.02 SUV
^52Mn^2+ uptake in liver (PET ROI) [9, 12]: 3.27±0.36 SUV and 3.27±0.34 SUV
^52Mn^2+ uptake in muscle (PET ROI) [9, 12]: 0.38±0.03 SUV
^52Mn^2+ uptake in pancreas (PET ROI) [9, 12]: 5.13±0.38 SUV and 5.13±0.36 SUV
^52Mn^2+ uptake in salivary glands (PET ROI) [9, 12]: 2.30±0.26 SUV
^52Mn^2+ uptake in salivary gland at subsequent time points ([9]; ICR mice, longitudinal PET after 1 h up to 13 days post injection): around 3 SUV
pancreas clearance half-life of ^52Mn^2+ ([9]; healthy mice, IV): approximately 8 days
^52Mn^2+ uptake in liver, lean mice ([10]; lean C57BL/6J, 1 h): 3.40±0.73 SUV
^52Mn^2+ uptake in salivary gland, lean mice ([10]; lean C57BL/6J, 1 h): 3.11±1.05 SUV
^52Mn^2+ pancreatic uptake, lean mice ([10]; lean C57BL/6J, PET 1 h after administration): 4.89±0.68 SUV
^52Mn^2+ uptake in liver, obese mice ([10]; ob/ob C57BL/6J, 1 h): 3.68±0.25 SUV
^52Mn^2+ uptake in salivary gland, obese mice ([10]; ob/ob C57BL/6J, 1 h): 2.40±0.20 SUV
^52Mn^2+ pancreatic uptake, ob/ob mice ([10]; pre-type 2 diabetic ob/ob C57BL/6J, PET 1 h after administration): 7.27±1.03 SUV
Structure (SMILES): [52Mn+2] [^52Mn^2+]
^52Mn^2+ uptake by islets under resting conditions [5]: readily taken up
